In BigSolDB 2.1:

COc1ccc2[nH]cc(CCNC(C)=O)c2c1
solubility (mole fraction)
Conditions | 278.15 K | 283.15 K | 288.15 K | 293.15 K | 298.15 K | 303.15 K | 308.15 K | 313.15 K | 318.15 K | 323.15 K
in 2-ethoxyethanol | 0.0643 | 0.0729 | 0.0809 | 0.0919 | 0.103 | 0.113 | 0.126 | 0.138 | 0.152 | 0.168
in 2-methoxyethanol | 0.0729 | 0.0819 | 0.0921 | 0.103 | 0.115 | 0.129 | 0.142 | 0.159 | 0.173 | 0.191
in DMF | 0.177 | 0.191 | 0.205 | 0.221 | 0.235 | 0.251 | 0.267 | 0.285 | 0.302 | 0.321
